Results from ChEMBL document CHEMBL4312011, “Synthesis and biological evaluation of triterpenoid thiazoles derived from betulonic acid, dihydrobetulonic acid, and ursonic acid” (Eur J Med Chem, 2020).

Tests used:
A549 = experiment: Cytotoxicity against human A549 cells incubated for 72 hrs by MTS assay; assay type: functional, cell-based; conditions: A549, 72 h
[1] = Stability in human plasma assessed as parent compound remaining at 2 uM incubated for 30 mins by RF-MS analysis; assay type: ADME, cell-free; conditions: read-out: Stability
[2] = Chemical stability of compound in PBS buffer assessed as parent compound remaining at 2 uM at pH 7.4 and 37 degC incubated for 60 mins by RF-MS analysis; assay type: physicochemical; conditions: read-out: Stability
[3] = Microsomal stability in human liver microsomes assessed as parent compound remaining at 2 uM incubated for 15 mins by RF-MS analysis; assay type: ADME, Microsome; conditions: read-out: Stability
[4] = Cytotoxicity against human CEM-DNR-bulk cells incubated for 72 hrs by MTS assay; assay type: functional, cell-based
[5] = Chemical stability of compound in PBS buffer assessed as parent compound remaining at 2 uM at pH 7.4 and 37 degC incubated for 30 mins by RF-MS analysis; assay type: physicochemical; conditions: read-out: Stability
[6] = Microsomal stability in human liver microsomes assessed as parent compound remaining at 2 uM incubated for 30 mins by RF-MS analysis; assay type: ADME, Microsome; conditions: read-out: Stability
[7] = Chemical stability of compound in PBS buffer assessed as parent compound remaining at 2 uM at pH 7.4 and 37 degC incubated for 120 mins by RF-MS analysis; assay type: physicochemical; conditions: read-out: Stability
MRC5 = experiment: Cytotoxicity against human MRC5 cells incubated for 72 hrs by MTS assay; assay type: cell-based; conditions: MRC5, 72 h
HCT-116 [8] = experiment: Cytotoxicity against p53 knockout human HCT116 cells incubated for 72 hrs by MTS assay; assay type: functional, cell-based; conditions: HCT-116, 72 h
K562 = experiment: Cytotoxicity against human K562 cells incubated for 72 hrs by MTS assay; assay type: functional, cell-based; conditions: K562, 72 h
[9] = Microsomal stability in human liver microsomes assessed as parent compound remaining at 2 uM incubated for 60 mins by RF-MS analysis; assay type: ADME, Microsome; conditions: read-out: Stability
BJ = experiment: Cytotoxicity against human BJ cells incubated for 72 hrs by MTS assay; assay type: cell-based
[10] = Stability in human plasma assessed as parent compound remaining at 2 uM incubated for 120 mins by RF-MS analysis; assay type: ADME, cell-free; conditions: read-out: Stability
HCT-116 [11] = experiment: Cytotoxicity against human HCT116 cells incubated for 72 hrs by MTS assay; assay type: functional, cell-based; conditions: HCT-116, 72 h
U2OS = experiment: Cytotoxicity against human U2OS cells incubated for 72 hrs by MTS assay; assay type: functional, cell-based
CCRF-CEM = experiment: Cytotoxicity against human CCRF-CEM cells incubated for 72 hrs by MTS assay; assay type: functional, cell-based
[12] = Chemical stability of compound in PBS buffer assessed as parent compound remaining at 2 uM at pH 7.4 and 37 degC incubated for 15 mins by RF-MS analysis; assay type: physicochemical; conditions: read-out: Stability
[13] = Stability in human plasma assessed as parent compound remaining at 2 uM incubated for 15 mins by RF-MS analysis; assay type: ADME, cell-free; conditions: read-out: Stability
[14] = Stability in human plasma assessed as parent compound remaining at 2 uM incubated for 60 mins by RF-MS analysis; assay type: ADME, cell-free; conditions: read-out: Stability
[15] = Cytotoxicity against human K562-TAX cells incubated for 72 hrs by MTS assay; assay type: functional, cell-based

remaining at 0.5 h, 2 µM [1] [%] | remaining at 1 h, 2 µM [2] [%] | remaining at 0.25 h, 2 µM [3] [%] | remaining at 0.5 h, 2 µM [5] [%] | remaining at 0.5 h, 2 µM [6] [%] | remaining at 2 h, 2 µM [7] [%] | remaining at 1 h, 2 µM [9] [%] | remaining at 2 h, 2 µM [10] [%] | remaining at 0.25 h, 2 µM [12] [%] | remaining at 0.25 h, 2 µM [13] [%] | remaining at 1 h, 2 µM [14] [%] | Structure (SMILES) | IC50 (A549) [µM] | IC50 [4] [µM] | IC50 (MRC5) [µM] | IC50 (HCT-116 [8]) [µM] | IC50 (K562) [µM] | IC50 (BJ) [µM] | IC50 (HCT-116 [11]) [µM] | IC50 (U2OS) [µM] | IC50 (CCRF-CEM) [µM] | further results
94.6 | 90.6 | 62.9 | 99.4 | 35.5 | 69.8 | 1.6 | 14 | 99.5 | 99.5 | 56.8 | CC(C)[C@@H]1CC[C@]2(C(=O)O)CC[C@]3(C)[C@H](CC[C@@H]4[C@@]5(C)CC(SC#N)C(=O)C(C)(C)[C@@H]5CC[C@]43C)[C@@H]12 (stereo partly drawn) | 12.5 | 14.5 | 4.6 | 3.4 | 3.4 | 5.8 | 3.5 | 15.1 | 0.9 | IC50 [15]: 5.4 µM
100 | 37.1 | 61 | 49.3 | 54.9 | 15.3 | 14.9 | 36.9 | 90.3 | 99.2 | 77.4 | C[C@H]1[C@H](C)CC[C@]2(C(=O)O)CC[C@]3(C)C(=CC[C@@H]4[C@@]5(C)CC(SC#N)C(=O)C(C)(C)[C@@H]5CC[C@]43C)[C@H]12 (stereo partly drawn) | 42.5 | 28.2 | 39.8 | 32.3 | 34.7 | > 50 | 32.1 | 33.1 | 4.7 | IC50 [15]: 29 µM
75.9 | 54.2 | 90.1 | 67.5 | 86.4 | 69.8 | 56.8 | 7.6 | 99.9 | 99 | 35.7 | C=C(C)[C@@H]1CC[C@]2(C(=O)O)CC[C@]3(C)[C@H](CC[C@@H]4[C@@]5(C)CC(SC#N)C(=O)C(C)(C)[C@@H]5CC[C@]43C)[C@@H]12 (stereo partly drawn) | 21.2 | 6.8 | 18.7 | 11.9 | 28.5 | 19.8 | 3.3 | 20.2 | 2.4 | IC50 [15]: 16.6 µM
